According to PMC9146423, “Discovery of Nitro-azolo[1,5-a]pyrimidines with Anti-Inflammatory and Protective Activity against LPS-Induced Acute Lung Injury” (Pharmaceuticals, 2022):
Counter-ions that a name gives are not always drawn.

Key:
[1] = test system: LPS-stimulated peritoneal macrophages of C57bl/6j mice; test: Inhibition of LPS-induced NO synthesis (nitrite accumulation, Griess reagent) in peritoneal macrophages; format: cell-based, mouse; conditions: 100 μM; for inhibition at 100 µM: Mus musculus, Peritoneal macrophage, 22 h, read-out: Inhibition of NO Synthesis vs. LPS Control; for inhibition at 100 µM / Inhibition of NO Synthesis vs. LPS Control: m ± SD
Description: (§1) Peritoneal macrophages (PM) were isolated from the peritoneal exudate of 30 male C57bl/6j mice. To accumulate PM, 1 mL of 3% peptone solution was injected intraperitoneally. After 3 days, the mice were euthanized by cervical dislocation. Cells of peritoneal exudate were obtained by aseptic washing of the abdominal cavity with 5 mL of sterile Hanks’s solution (+4–6 °C) without calcium and magnesium ions. The total number and viability of cells were assessed in a Goryaev counting chamber (Russia) with a 0.4% trypan blue staining (Sigma-Aldrich, St. Louis, MO, USA). The cell concentration was adjusted to 1.0 × 10^6 cells/mL in DMEM (Gibco) supplemented with 2 mM L-glutamine (Gibco, Waltham, MA, USA), 10% heat-inactivated fetal bovine serum (BioClot, Bavaria, Germany), 100 U/mL penicillin, and […] streptomycin (Gibco) and plated 200 μL/well in 96-well transparent plates (SPL Life Sciences Co., Ltd., Pocheon-si, Korea). After 2 h at 37 °C in a humidified atmosphere with 5% CO2, the wells were washed to remove non-adherent cells. After 24 h of incubation, 20 μL of the supernatants were substituted with 20 μL of solutions of test compounds, followed by E. coli O127:B8 LPS (100 ng/mL final concentration) after 30 min. The experiments were run in 3 independent replicates.
The accumulation of the nitrite anion (a stable end product of NO decomposition produced by iNOS) in supernatants was determined using a standard Griess reagent. Briefly, 50 μL of supernatants were collected 22 h after incubation of PM, and the test and control compounds were mixed with 50 μL of 1% […] in 2.5% H3PO4 and 50 μL of 0.1% N-(1-naphthyl) ethylenediamine in 2.5% H3PO4. After incubation at 23 °C for 10 min in an orbital shaker, the optical density was determined at a wavelength of 550 nm with a microplate reader Infinite M200 PRO (Tecan, Grödig, Austria).

[2] = test system: LPS-stimulated peritoneal macrophages of C57bl/6j mice; test: Cell viability of LPS-stimulated macrophages, MTT test; format: cell-based; conditions: 100 μM
Description: as §1
The activity of lactate dehydrogenase (LDH) in a cell culture medium served as a marker of membrane permeability and cell death. Aliquotes of supernatants were taken after 24 h of inoculation with test compounds, mixed with 250 μL of […] NADH solution in 54 mM phosphate-buffered saline (pH 7.5). Then, 25 μL of a 6.48 mM pyruvate solution was added to the mixture. The optical density was followed at a wavelength of 340 nm for 20 min. The MTT-test was performed 24 h after incubations of cells with tested compounds. Briefly, 20 μL of MTT solution was added to each well, incubated at 37 °C in a humidified atmosphere containing 5% CO2 for 4 h. The culture medium was removed, the cells were lysed, and formazan crystals were dissolved in 150 μL DMSO. The plates were shaken at room temperature for 10 min, and the optical density was measured in a microplate reader Infinite M200 PRO (Tecan, Grödig, Austria) at a wavelength of 565 nm.

C57BL/6J mice = test: LPS-induced acute lung injury in mice; format: in vivo, mouse
Description: The randomization of C57bl/6j mice into experimental and control groups was based on body weight and behavioral activity assessed in an open field test 24 h before the start of the experiment. The next day, mice were treated with vehicle or test compounds 1 h before intratracheal instillation of LPS solution in sterile saline.
The randomization of C57BL/6J mice was performed by body weight and motor activity in an open field test. Dexamethasone (5 mg/kg) and 9g (30 mg/kg) were administered intraperitoneally in 10 mL/kg sterile saline. The control animals received an equal volume of the vehicle. After 1 h, the mice were anesthetized with isoflurane inhalation until their breathing rate was decreased. The mice were suspended by the front incisors on an inclined surgical table, the tongue was pulled out with narrow curved tweezers, and 1 mg/mL of E. coli O127:B8 LPS (Sigma-Aldrich, St. Louis, MO, USA) in 1 mL/kg sterile saline was injected into the back of the oropharynx. Intact control animals received an equal volume of sterile saline similarly.
The animals were placed in the center of a round open field with an arena of 44 cm diameter and 32 cm wall height under 300 lux lighting. During 5 min of observation, horizontal motor activity, vertical motor activity, time spent in the central part, the number of exits to the central part, and exploratory activity parameters were recorded. Body temperature was determined rectally.
The mice were anesthetized with 500 mg/kg chloral hydrate (Sigma-Aldrich, St. Louis, MO, USA) intraperitoneally 24 h after LPS administration. Blood was taken by intracardiac puncture in test tubes with heparin. The blood samples were centrifuged at 1000 g and 4 °C for 15 min on a 2–16PK centrifuge (Sigma, Germany), and plasma was separated and stored at −80 °C until the assay. Thoracotomy was performed, the ligature was applied to the left bronchus and the trachea was cannulated with a 20 G needle. The right lung was washed twice with 0.7 mL of warm sterile saline. After combining aliquots, the bronchoalveolar lavage (BAL) was centrifuged at 800 g and 4 °C for 10 min. The supernatant was separated and stored at −80 °C until the assay. The residual cell pellet was resuspended in 50 μL of PBS for further study. The left lung was washed in saline and placed in 10% buffered formalin for morphological evaluation.
The total number of leukocytes in heparinized blood was determined after staining with methylene blue in Goryaev’s counting chamber at ×100 magnification. Smears of blood and BAL cell pellets were air-dried, fixed according to May–Grunwald for 3 min, and stained according to Romanowsky–Giemsa. After 30 min, the slides were washed, air-dried, and examined with immersion objective (×1000 total magnification). On each slide, a total of at least 100 cells were calculated.
The concentration of total protein in BAL supernatants was determined spectrophotometrically with the pyrogallol red method, and the protein in the blood plasma was determined with the biuret method using commercial kits (Vital, Saint Petersburg, Russia) and bovine serum albumin as the standard. The lung permeability index was calculated as the protein concentration in the BAL to plasma ratio.
Morphological markers of inflammation in lung tissue were assessed in a semi-quantitative way on paraffin sections stained with hematoxylin and eosin. The sections were examined under a light microscope (Zeiss, Germany) by a double-blind method. The score of inflammation was determined as follows: 0—the presence of single inflammatory cells; 1—weak inflammation, inflammatory cells infiltrate no more than 10% of the lung tissue, including interalveolar cell partitions; 2—moderate inflammation, inflammatory cells infiltrate no more than 50% of the structures of the lung, but the interstitial tissue is identified; 3—severe inflammation, inflammatory cells densely infiltrate more than 50% of the lung tissue and airways.

[3] = test system: peritoneal macrophages of C57bl/6j mice; test: Yeast phagocytosis assay and macrophage spreading; format: cell-based, mouse
Description: Next, we evaluated lead compound 9g for immunodepressant activity in parallel with the reference drug dexamethasone. Yeast phagocytosis was assessed by microscopic examination as the number of phagocytes per 100 macrophages and as the number of phagocytosed yeast cells in each phagocyte. Cell viability was assessed as lactate dehydrogenase activity in cell supernatants, which correlates with increased cell membrane permeability.
Peritoneal macrophages of C57bl/6j mice were cultured in a 24-well plate at a volume of 500 μL/well (1 × 10^5 cells/mL) for 24 h. Test compounds or DMSO were added to wells in triplicate followed by 50 μL of 1% yeast suspension, and the plates were incubated for 40 min. After 24 or 72 h, the medium was removed. The cells were fixed with May–Grunwald methanol dye and stained with Azur-Eosin in Romanovsky’s modification for 45 min at room temperature, washed, air-dried, and analyzed using a microscope Mikmed-6 (Russia), equipped with a digital camera. The study was performed in three technical replicates and two series; 100 macrophages were processed in each sample to count the captured yeast cells. Macrophage spreading was assessed as a number of pseudopodia.

[4] = 24 h after LPS, dexamethasone 5 mg/kg, 9g 30 mg/kg i.p.

Cc1nc2nnnn2c(NCC(O)CO)c1[N+](=O)[O-] (stereo not shown) [Compound 9e, 3-[(5-Methyl-6-nitrotetrazolo[1,5-a]pyrimidin-7-yl)-amino]propane-1,2-diol]
inhibition at 100 µM [1]: 21.5 ± 2.74% | Cell Viability vs. LPS Control, MTT Test ([2]; male, C57bl/6j, mouse, 24 h): 94.98 ± 12.48%

C#CCSc1nc2ncc([N+](=O)[O-])c(NCCc3ccc(O)cc3)n2n1 [Compound 10g, 4-{2-[(6-Nitro-2-(prop-2-yn-1-ylsulfanyl)[1,2,4]triazolo[1,5-a]pyrimidin-7-yl)amino]ethyl}phenol]
inhibition at 100 µM [1]: 28.5 ± 3.21% | Cell Viability vs. LPS Control, MTT Test ([2]; male, C57bl/6j, mouse, 24 h): 30.9 ± 7.7 %

Cc1nc2nnnn2c(NCCCO)c1[N+](=O)[O-] [Compound 9d, 3-[(5-Methyl-6-nitrotetrazolo[1,5-a]pyrimidin-7-yl)-amino]propanol]
inhibition at 100 µM [1]: 40.3 ± 5.14% | Cell Viability vs. LPS Control, MTT Test ([2]; male, C57bl/6j, mouse, 24 h): 116.6 ± 8.97%

Cc1nc2nnnn2c(NCCO)c1[N+](=O)[O-] [Compound 9c, 2-[(5-Methyl-6-nitrotetrazolo[1,5-a]pyrimidin-7-yl)-amino]ethanol]
inhibition at 100 µM [1]: 54.2 ± 11.5% | Cell Viability vs. LPS Control, MTT Test ([2]; male, C57bl/6j, mouse, 24 h): 109.0 ± 2.00%

C[C@@H]1C[C@H]2[C@@H]3CCC4=CC(=O)C=C[C@]4(C)[C@@]3(F)[C@@H](O)C[C@]2(C)[C@@]1(O)C(=O)CO [Dexamethasone, reference compound]
Blood leukocyte subpopulations (C57BL/6J mice; 24 h after LPS): normalized leukocyte subpopulations to the values of intact animals | CD68+ cells in lung tissue, immunostaining (C57BL/6J mice; 24 h after LPS): rarely detected | LPS-induced lung lesions, histologic scoring (hemorrhage and neutrophil infiltration) (C57BL/6J mice; 24 h after LPS, H&E, semi-quantitative): significantly ameliorated | Blood plasma IL-6 level (C57BL/6J mice; [4]): normalized the blood plasma IL-6 level | Permeability of pulmonary vessels (lung permeability index) (C57BL/6J mice; [4]): prevent the increase in permeability of pulmonary vessels | Horizontal motor activity, open field test (C57BL/6J mice; 24 h after LPS, dexamethasone 5 mg/kg, 9g 30 mg/kg i.p. 1 h before LPS): significant improvement | Segmented neutrophils count in BAL (in words) (C57BL/6J mice; 24 h after LPS, monocytes in BAL increased): significantly decreased the segmented neutrophils count | Spleen mass and lymphocyte content (markers of immunodepression) (C57BL/6J mice; LPS-treated mice, dexamethasone 5 mg/kg, 9g 30 mg/kg i.p.): significantly reduced | LPS-induced hypothermia (C57BL/6J mice; body temperature determined rectally): attenuated LPS-induced hypothermia | Segmented neutrophils, share of BAL cells (C57BL/6J mice; bronchoalveolar lavage 24 h after LPS, dexamethasone 5 mg/kg, 9g 30 mg/kg i.p.): 22.5% | Number of center entries and time in the center, open field test (C57BL/6J mice; dexamethasone 5 mg/kg, 9g 30 mg/kg i.p.): restored the number of center entries and time in the center to intact levels | Inhibition of NO Synthesis vs. LPS Control [1]: 90.91 ± 5.53 % | Cell Viability vs. LPS Control, MTT Test ([2]; male, C57bl/6j, mouse, 24 h): 104.21 ± 2.18% | Suppression of phagocytosis ([3]; after 24-h of incubation, data not shown): significantly suppressed phagocytosis | Decrease of the mean number of phagocytosed yeast cells ([3]; after 72 h of incubation): 59%

Cc1nc2nnnn2c(NC(C)C)c1[N+](=O)[O-] [Compound 9a, N-Isopropyl-5-methyl-6-nitrotetrazolo[1,5-a]pyrimidin-7-amine]
inhibition at 100 µM [1]: 47.7 ± 6.98% | Cell Viability vs. LPS Control, MTT Test ([2]; male, C57bl/6j, mouse, 24 h): 73.47 ± 12.07%

Cc1nc2nnnn2c(NCCc2ccc(Cl)cc2)c1[N+](=O)[O-] [Compound 9f, N-[2-(4-Chlorophenyl)ethyl]-5-methyl-6-nitrotetrazolo-[1,5-a]pyrimidin-7-amine]
inhibition at 100 µM [1]: 35.8 ± 4.45% | Cell Viability vs. LPS Control, MTT Test ([2]; male, C57bl/6j, mouse, 24 h): 102.67 ± 6.35%

C#CCSc1nc2ncc([N+](=O)[O-])c(NCCc3ccc(Cl)cc3)n2n1 [Compound 10f, N-(4-Chlorophenethyl)-6-nitro-2-(prop-2-yn-1-yl-sulfanyl)[1,2,4]triazolo[1,5-a]pyrimidin-7-amine]
inhibition at 100 µM [1]: 50.6 ± 1.27% | Cell Viability vs. LPS Control, MTT Test ([2]; male, C57bl/6j, mouse, 24 h): 38.37 ± 6.89 %

Cc1nc2nnnn2c(NC(C)(C)C)c1[N+](=O)[O-] [Compound 9b, N-Tert-Butyl-5-methyl-6-nitrotetrazolo[1,5-a]pyrimidin-7-amine]
inhibition at 100 µM [1]: 37 ± 3.25% | Cell Viability vs. LPS Control, MTT Test ([2]; male, C57bl/6j, mouse, 24 h): 104.9 ± 5.87%

Cc1[nH]c2nc(-c3ccc([N+](=O)[O-])o3)nn2c(=O)c1[N+](=O)[O-] [Compound 14, 2-(5-Nitrofur-2-yl)-5-methyl-6-nitro-1,2,4-triazolo[1,5-a]pyrimidin-7-one guanidinium salt]
Inhibition of nitric oxide synthesis (in words) [1]: did not demonstrate inhibition of nitric oxide synthesis | Inhibition of NO Synthesis vs. LPS Control [1]: 16.09 ± 5.78% | Cell Viability vs. LPS Control, MTT Test ([2]; m ± SD): 111.95 ± 8.67%

Cc1[nH]c2nc(-c3ccc([N+](=O)[O-])o3)nn2c(=O)c1[N+](=O)[O-] [Compound 13, 2-(5-Nitrofur-2-yl)-5-methyl-6-nitro-1,2,4-triazolo[1,5-a]pyrimidin-7-one aminoguanidinium salt]
Inhibition of nitric oxide synthesis (in words) [1]: comparable to that of the tetrazolopyrimidine series | Inhibition of NO Synthesis vs. LPS Control [1]: 58.97 ± 7.07 % | Cell Viability vs. LPS Control, MTT Test ([2]; m ± SD): 96.97 ± 7.18%
